Target: T1, Beta-glucuronidase (Homo sapiens, UniProt P08236)
T1 sequence (P08236 whole entry): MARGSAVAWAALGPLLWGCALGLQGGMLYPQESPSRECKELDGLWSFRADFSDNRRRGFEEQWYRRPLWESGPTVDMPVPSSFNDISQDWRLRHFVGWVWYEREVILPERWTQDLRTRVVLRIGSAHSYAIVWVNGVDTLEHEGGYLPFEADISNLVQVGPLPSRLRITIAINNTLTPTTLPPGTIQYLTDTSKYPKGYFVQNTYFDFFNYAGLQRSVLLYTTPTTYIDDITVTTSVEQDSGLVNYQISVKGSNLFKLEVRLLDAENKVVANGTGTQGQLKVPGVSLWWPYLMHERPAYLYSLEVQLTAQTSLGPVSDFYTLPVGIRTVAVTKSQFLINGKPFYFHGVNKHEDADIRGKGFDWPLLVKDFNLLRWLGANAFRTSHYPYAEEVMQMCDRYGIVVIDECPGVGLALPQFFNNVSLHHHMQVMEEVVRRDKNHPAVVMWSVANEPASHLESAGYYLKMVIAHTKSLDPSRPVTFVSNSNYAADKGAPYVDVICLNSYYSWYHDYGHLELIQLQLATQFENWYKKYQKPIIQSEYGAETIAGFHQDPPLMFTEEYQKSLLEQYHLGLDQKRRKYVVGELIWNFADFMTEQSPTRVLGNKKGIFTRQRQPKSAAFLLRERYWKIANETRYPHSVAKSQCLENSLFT
Assay: β-Glucuronidase Assay
Method: β-glucuronidase activity was determined in accordance to method used by Taha et al. [Taha et al., Bioorg. […] 250 μL was the volume of total reaction. Reaction mixture containing 5 μL of test compound solution, 185 μL of 0.1 M acetate buffer and 10 μL of enzyme solution were incubated for 30 min at 37 °C. […] To avoid precipitation, compound concentration was decreased and the volume of reaction was increased (200 μL). Precipitation probability was less thus addition of detergents was not needed.

IC50 [µM] | Structure (SMILES)
13.4 | O=C(N/N=C/c1cccc(O)c1O)c1cc2cc(Cl)ccc2[nH]1 [(E)-5-chloro-N'-(2,3-dihydroxybenzylidene)-1H-indole-2-carbohydrazide (19)]
7.5 | O=C(N/N=C/c1cc(O)ccc1O)c1cc2cc(Cl)ccc2[nH]1 [(E)-5-chloro-N'-(2,5-dihydroxybenzylidene)-1H-indole-2-carbohydrazide (23)]
21.5 | COc1ccc(/C=N/NC(=O)c2cc3cc(Cl)ccc3[nH]2)c(O)c1 [(E)-5-chloro-N'-(2-hydroxy-4-methoxybenzylidene)-1H-indole-2-carbohydrazide (16)]
24.3 | COc1ccc(O)c(/C=N/NC(=O)c2cc3cc(Cl)ccc3[nH]2)c1 [(E)-5-chloro-N'-(2-hydroxy-5-methoxybenzylidene)-1H-indole-2-carbohydrazide (6)]
25.2 | O=C(N/N=C/c1ccccc1O)c1cc2cc(Cl)ccc2[nH]1 [(E)-5-chloro-N'-(2-hydroxybenzylidene)-1H-indole-2-carbohydrazide (26)]
14.6 | O=C(N/N=C/c1ccc(O)c(O)c1)c1cc2cc(Cl)ccc2[nH]1 [(E)-5-chloro-N'-(3,4-dihydroxybenzylidene)-1H-indole-2-carbohydrazide (24)]
22.5 | COc1ccc(/C=N/NC(=O)c2cc3cc(Cl)ccc3[nH]2)cc1O [(E)-5-chloro-N'-(3-hydroxy-4-methoxybenzylidene)-1H-indole-2-carbohydrazide (5)]
53.6 | COc1ccc(/C=N/NC(=O)c2cc3cc(Cl)ccc3[nH]2)cc1 [(E)-5-chloro-N'-(4-methoxybenzylidene)-1H-indole-2-carbohydrazide (13)]
43.5 | Cc1ccc(/C=N/NC(=O)c2cc3cc(Cl)ccc3[nH]2)cc1 [(E)-5-chloro-N'-(4-methylbenzylidene)-1H-indole-2-carbohydrazide (1)]
22.8 | O=C(N/N=C/c1ccccn1)c1cc2cc(Cl)ccc2[nH]1 [(E)-5-chloro-N'-(pyridin-2-ylmethylene)-1H-indole-2-carbohydrazide (17)]
44.5 | O=C(N/N=C/c1cccnc1)c1cc2cc(Cl)ccc2[nH]1 [(E)-5-chloro-N'-(pyridin-3-ylmethylene)-1H-indole-2-carbohydrazide (18)]
42.4 | O=C(N/N=C/c1ccncc1)c1cc2cc(Cl)ccc2[nH]1 [(E)-5-chloro-N'-(pyridin-4-ylmethylene)-1H-indole-2-carbohydrazide (27)]
14.4 | O=C(N/N=C/c1ccc(F)c(Br)c1)c1cc2cc(Cl)ccc2[nH]1 [(E)-N'-(3-bromo-4-fluorobenzylidene)-5-chloro-1H-indole-2-carbohydrazide (33)]
37.2 | O=C(N/N=C/c1ccc(Cl)cc1)c1cc2cc(Cl)ccc2[nH]1 [(E)-N'-(4-chlorobenzylidene)-5-chloro-1H-indole-2-carbohydrazide (34)]
22.6 | COC(=O)c1ccc(/C=N/NC(=O)c2cc3cc(Cl)ccc3[nH]2)cc1 [Methyl (E)-4-((2-(5-chloro-1H-indole-2-carbonyl)hydrazono)methyl)benzoate (15)]

Source: BindingDB's records for doi:10.7270/Q28051GP (Universiti Teknologi Mara, 2017)
